# Target: T1, pancreatic α-amylase (Homo sapiens, UniProt P04746)
# T1 construct: purchased Sigma-Aldrich
# T1 sequence (P04746 16-511): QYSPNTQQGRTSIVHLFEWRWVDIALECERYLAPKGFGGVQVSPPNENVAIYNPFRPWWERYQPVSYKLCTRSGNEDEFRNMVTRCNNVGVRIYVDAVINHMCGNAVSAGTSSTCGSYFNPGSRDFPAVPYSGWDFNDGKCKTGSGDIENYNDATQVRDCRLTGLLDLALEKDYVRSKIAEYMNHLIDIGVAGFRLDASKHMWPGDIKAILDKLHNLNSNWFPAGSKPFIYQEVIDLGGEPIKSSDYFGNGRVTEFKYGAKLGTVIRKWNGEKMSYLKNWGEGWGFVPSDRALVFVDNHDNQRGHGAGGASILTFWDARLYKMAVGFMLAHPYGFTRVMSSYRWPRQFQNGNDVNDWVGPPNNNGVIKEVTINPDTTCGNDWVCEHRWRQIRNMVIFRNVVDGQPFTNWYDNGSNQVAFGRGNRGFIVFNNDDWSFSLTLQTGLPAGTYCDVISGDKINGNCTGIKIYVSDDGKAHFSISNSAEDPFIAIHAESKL
# Assay: In vitro inhibition of pancreatic α-amylase (starch, DNSA)
# Assay type: biochemical
# Conditions: pure commercial standards; triplicate; Figure 7 A-C
# Experimental: Pancreatic α-amylase inhibition activity was assessed according to the method described by Daoudiet al. [25]. […] The solutions were prepared by dissolving the enzymes and samples in a phosphate buffer solution (0.1 M, pH 6.9). The mixtures were incubated for 10 min at 37 °C. Next, 200 μL of 1% starch also dissolved in a phosphate buffer was added to the reaction mixture, and all test tubes were incubated for another 20 min at 37 °C. To stop the reaction, 600 μL of DNSA (1 g of 3,5-dinitrosalicylic acid dissolved in 20 mL of NaOH(2N), combined with 30 g of KNaC4H4O6, and filled up to 100 mL with distilled water) was added. Afterward, the mixture was posed in a water bath at 100 °C for 8 min, then it was put in an ice-cold-water bath for a few minutes. About 1 mL of distilled water was added to the sample tubes before their absorbance measurement at 540 nm.
# The percentage of inhibition was computed using the following formula:(2) Inhibitory activity (%)=Abs control 540 nm− Abs sample 540 nm/Abs control 540 nm×100
# Increasing concentrations were utilized to calculate the IC50 value. The enzymatic assays were carried out as indicated above.
row,IC50 [µM],Compound
1,29.4 ± 4.57,O=c1oc2c(O)c(O)cc3c(=O)oc4c(O)c(O)cc1c4c23 [Ellagic acid]
2,30.8 ± 2.11,"Oc1cc(O)c2c(c1)O[C@@H](c1ccc(O)c(O)c1)[C@H](O)C2 [Catechin, (−)-catechin]"
